Results published in ChEMBL document CHEMBL3862012, “Methylene versus carbonyl bridge in the structure of new tubulin polymerization inhibitors with tricyclic A-rings” (Bioorg Med Chem, 2016).

Test: Cytotoxicity against human SK-MEL-28 cells assessed as growth inhibition at 10 uM after 48 hrs by SRB assay relative to control
Assay type: functional
Conditions: SK-MEL-28, 48 h, read-out: GI

Going from COc1ccc(CN2c3ccccc3CCc3ccccc32)cc1F to COc1ccc(CN2c3ccccc3Sc3ccccc32)c(F)c1, the inhibition of growth at 10 µM falls from 49% to 47%.

Test: Cytotoxicity against human IGROV1 cells assessed as growth inhibition at 10 uM after 48 hrs by SRB assay relative to control
Assay type: functional
Conditions: IGROV-1, 48 h, read-out: GI

Going from COc1ccc(CN2c3ccccc3CCc3ccccc32)cc1F to COc1ccc(CN2c3ccccc3Sc3ccccc32)c(F)c1, the inhibition of growth at 10 µM rises from 48% to 50%.

Test: Cytotoxicity against human DU145 cells assessed as growth inhibition at 10 uM after 48 hrs by SRB assay relative to control
Assay type: functional
Conditions: DU-145, 48 h, read-out: GI

Compared with COc1ccc(CN2c3ccccc3CCc3ccccc32)cc1F, COc1ccc(CN2c3ccccc3Sc3ccccc32)c(F)c1 is lower in inhibition of growth at 10 µM: 91% for the first, 79% for the second.

Test: Cytotoxicity against human HOP62 cells assessed as growth inhibition at 10 uM after 48 hrs by SRB assay relative to control
Assay type: functional
Conditions: HOP-62, 48 h, read-out: GI

First: COc1ccc(CN2c3ccccc3CCc3ccccc32)cc1F
Second: COc1ccc(CN2c3ccccc3Sc3ccccc32)c(F)c1
The inhibition of growth at 10 µM of the first is lower: 63% for the first, 73% for the second.

Test: Cytotoxicity against human SK-MEL-5 cells assessed as growth inhibition at 10 uM after 48 hrs by SRB assay relative to control
Assay type: functional
Conditions: SK-MEL-5, 48 h, read-out: GI

First: COc1ccc(CN2c3ccccc3CCc3ccccc32)cc1F
Second: COc1ccc(CN2c3ccccc3Sc3ccccc32)c(F)c1
The inhibition of growth at 10 µM of the first is higher: 80% for the first, 74% for the second.

Test: Cytotoxicity against human SF295 cells assessed as growth inhibition after 48 hrs by SRB assay
Assay type: functional
Conditions: SF-295, 48 h

COc1ccc(CN2c3ccccc3CCc3ccccc32)cc1F gave a GI50 of 333 nM.

Test: Cytotoxicity against human K562 cells assessed as growth inhibition after 48 hrs by SRB assay
Assay type: functional
Conditions: K562, 48 h

Compared with COc1ccc(CN2c3ccccc3CCc3ccccc32)cc1F, COc1ccc(CN2c3ccccc3Sc3ccccc32)c(F)c1 is 11-fold lower in GI50: 402 nM for the first, 38 nM for the second.

Test: Cytotoxicity against human SF539 cells assessed as growth inhibition at 10 uM after 48 hrs by SRB assay relative to control
Assay type: functional
Conditions: SF-539, 48 h, read-out: GI

COc1ccc(CN2c3ccccc3CCc3ccccc32)cc1F and COc1ccc(CN2c3ccccc3Sc3ccccc32)c(F)c1 are the same in inhibition of growth at 10 µM: 100% for the first, 100% for the second.

Test: Cytotoxicity against human A498 cells assessed as growth inhibition at 10 uM after 48 hrs by SRB assay relative to control
Assay type: functional
Conditions: A498, 48 h, read-out: GI

COc1ccc(CN2c3ccccc3CCc3ccccc32)cc1F and COc1ccc(CN2c3ccccc3Sc3ccccc32)c(F)c1 are the same in inhibition of growth at 10 µM: 100% for the first, 100% for the second.

Test: Cytotoxicity against human HOP92 cells assessed as growth inhibition at 10 uM after 48 hrs by SRB assay relative to control
Assay type: functional
Conditions: HOP-92, 48 h, read-out: GI

Compared with COc1ccc(CN2c3ccccc3CCc3ccccc32)cc1F, COc1ccc(CN2c3ccccc3Sc3ccccc32)c(F)c1 is higher in inhibition of growth at 10 µM: 64% for the first, 67% for the second.

Test: Cytotoxicity against human 786-0 cells assessed as growth inhibition after 48 hrs by SRB assay
Assay type: functional
Conditions: 786-0, 48 h

For COc1ccc(CN2c3ccccc3CCc3ccccc32)cc1F, the GI50 was 572 nM.

Test: Cytotoxicity against human HL-60(TB) cells assessed as growth inhibition after 48 hrs by SRB assay
Assay type: functional
Conditions: HL-60, 48 h

For COc1ccc(CN2c3ccccc3CCc3ccccc32)cc1F, the GI50 was 241 nM.

Test: Cytotoxicity against human HCT116 cells assessed as growth inhibition after 48 hrs by SRB assay
Assay type: functional
Conditions: HCT-116, 48 h

Compared with COc1ccc(CN2c3ccccc3CCc3ccccc32)cc1F, COc1ccc(CN2c3ccccc3Sc3ccccc32)c(F)c1 is 10-fold lower in GI50: 413 nM for the first, 40 nM for the second.

Test: Cytotoxicity against human SR cells assessed as growth inhibition at 10 uM after 48 hrs by SRB assay relative to control
Assay type: functional
Conditions: read-out: GI

COc1ccc(CN2c3ccccc3CCc3ccccc32)cc1F and COc1ccc(CN2c3ccccc3Sc3ccccc32)c(F)c1 are the same in inhibition of growth at 10 µM: 88% for the first, 88% for the second.

Test: Cytotoxicity against human MDA-MB-231 cells assessed as growth inhibition at 10 uM after 48 hrs by SRB assay relative to control
Assay type: functional
Conditions: MDA-MB-231, 48 h, read-out: GI

First: COc1ccc(CN2c3ccccc3CCc3ccccc32)cc1F
Second: COc1ccc(CN2c3ccccc3Sc3ccccc32)c(F)c1
The inhibition of growth at 10 µM of the first is higher: 83% for the first, 40% for the second.

Test: Cytotoxicity against human HCT15 cells assessed as growth inhibition after 48 hrs by SRB assay
Assay type: functional
Conditions: HCT-15, 48 h

First: COc1ccc(CN2c3ccccc3CCc3ccccc32)cc1F
Second: COc1ccc(CN2c3ccccc3Sc3ccccc32)c(F)c1
The GI50 of the first is 11-fold higher: 428 nM for the first, 38 nM for the second.

Test: Cytotoxicity against human LOXIMVI cells assessed as growth inhibition at 10 uM after 48 hrs by SRB assay relative to control
Assay type: functional
Conditions: LOX IMVI, read-out: GI

Compared with COc1ccc(CN2c3ccccc3CCc3ccccc32)cc1F, COc1ccc(CN2c3ccccc3Sc3ccccc32)c(F)c1 is lower in inhibition of growth at 10 µM: 50% for the first, 47% for the second.

Test: Cytotoxicity against human HT-29 cells assessed as growth inhibition after 48 hrs by SRB assay
Assay type: functional
Conditions: HT-29, 48 h

First: COc1ccc(CN2c3ccccc3CCc3ccccc32)cc1F
Second: COc1ccc(CN2c3ccccc3Sc3ccccc32)c(F)c1
The GI50 of the first is 9.1-fold higher: 319 nM for the first, 35 nM for the second.

Test: Cytotoxicity against human NCI-ADR-RES cells assessed as growth inhibition after 48 hrs by SRB assay
Assay type: functional
Conditions: not given

With COc1ccc(CN2c3ccccc3CCc3ccccc32)cc1F the GI50 was 456 nM.

Test: Cytotoxicity against human BT549 cells assessed as growth inhibition at 10 uM after 48 hrs by SRB assay relative to control
Assay type: functional
Conditions: BT-549, 48 h, read-out: GI

First: COc1ccc(CN2c3ccccc3CCc3ccccc32)cc1F
Second: COc1ccc(CN2c3ccccc3Sc3ccccc32)c(F)c1
The inhibition of growth at 10 µM of the first is lower: 46% for the first, 47% for the second.

Test: Cytotoxicity against human NCI-H460 cells assessed as growth inhibition after 48 hrs by SRB assay
Assay type: functional
Conditions: NCI-H460, 48 h

Compound COc1ccc(CN2c3ccccc3CCc3ccccc32)cc1F has a GI50 of 419 nM.

Test: Cytotoxicity against human SK-MEL-5 cells assessed as growth inhibition after 48 hrs by SRB assay
Assay type: functional
Conditions: SK-MEL-5, 48 h

COc1ccc(CN2c3ccccc3CCc3ccccc32)cc1F showed a GI50 of 522 nM.

Test: Cytotoxicity against human NCI-H522 cells assessed as growth inhibition after 48 hrs by SRB assay
Assay type: functional
Conditions: NCI-H522, 48 h

Compound COc1ccc(CN2c3ccccc3CCc3ccccc32)cc1F has a GI50 of 609 nM.

Test: Cytotoxicity against human KM12 cells assessed as growth inhibition after 48 hrs by SRB assay
Assay type: functional
Conditions: KM12, 48 h

Compared with COc1ccc(CN2c3ccccc3CCc3ccccc32)cc1F, COc1ccc(CN2c3ccccc3Sc3ccccc32)c(F)c1 is 9-fold lower in GI50: 387 nM for the first, 43 nM for the second.

Test: Cytotoxicity against human COLO205 cells assessed as growth inhibition after 48 hrs by SRB assay
Assay type: functional
Conditions: COLO 205, 48 h

COc1ccc(CN2c3ccccc3CCc3ccccc32)cc1F gave a GI50 of 335 nM.

Test: Cytotoxicity against human HCC2998 cells assessed as growth inhibition after 48 hrs by SRB assay
Assay type: functional
Conditions: HCC 2998, 48 h

Compared with COc1ccc(CN2c3ccccc3CCc3ccccc32)cc1F, COc1ccc(CN2c3ccccc3Sc3ccccc32)c(F)c1 is 1.8-fold lower in GI50: 8900 nM for the first, 5060 nM for the second.

Test: Cytotoxicity against human MOLT4 cells assessed as growth inhibition after 48 hrs by SRB assay
Assay type: functional
Conditions: MOLT-4, 48 h

In the case of COc1ccc(CN2c3ccccc3CCc3ccccc32)cc1F, the GI50 is reported as 554 nM.

Test: Cytotoxicity against human Caki1 cells assessed as growth inhibition at 10 uM after 48 hrs by SRB assay relative to control
Assay type: functional
Conditions: CAKI-1, 48 h, read-out: GI

First: COc1ccc(CN2c3ccccc3CCc3ccccc32)cc1F
Second: COc1ccc(CN2c3ccccc3Sc3ccccc32)c(F)c1
The inhibition of growth at 10 µM of the first is lower: 70% for the first, 78% for the second.

Test: Cytotoxicity against human M14 cells assessed as growth inhibition after 48 hrs by SRB assay
Assay type: functional
Conditions: M14, 48 h

Compared with COc1ccc(CN2c3ccccc3CCc3ccccc32)cc1F, COc1ccc(CN2c3ccccc3Sc3ccccc32)c(F)c1 is 9.3-fold lower in GI50: 354 nM for the first, 38 nM for the second.

Test: Cytotoxicity against human CCRF-CEM cells assessed as growth inhibition after 48 hrs by SRB assay
Assay type: functional
Conditions: not given

For COc1ccc(CN2c3ccccc3CCc3ccccc32)cc1F, the GI50 was 515 nM.

Test: Cytotoxicity against human U251 cells assessed as growth inhibition after 48 hrs by SRB assay
Assay type: functional
Conditions: U-251, 48 h

With COc1ccc(CN2c3ccccc3CCc3ccccc32)cc1F the GI50 was 496 nM.

Test: Cytotoxicity against human SKOV3 cells assessed as growth inhibition at 10 uM after 48 hrs by SRB assay relative to control
Assay type: functional
Conditions: SK-OV-3, 48 h, read-out: GI

Compared with COc1ccc(CN2c3ccccc3CCc3ccccc32)cc1F, COc1ccc(CN2c3ccccc3Sc3ccccc32)c(F)c1 is higher in inhibition of growth at 10 µM: 62% for the first, 70% for the second.

Test: Cytotoxicity against human Hs 578T cells assessed as growth inhibition after 48 hrs by SRB assay
Assay type: functional
Conditions: not given

With COc1ccc(CN2c3ccccc3CCc3ccccc32)cc1F the GI50 was 487 nM.

Test: Cytotoxicity against human SW620 cells assessed as growth inhibition after 48 hrs by SRB assay
Assay type: functional
Conditions: SW-620, 48 h

First: COc1ccc(CN2c3ccccc3CCc3ccccc32)cc1F
Second: COc1ccc(CN2c3ccccc3Sc3ccccc32)c(F)c1
The GI50 of the first is 11-fold higher: 386 nM for the first, 36 nM for the second.

Test: Cytotoxicity against human TK10 cells assessed as growth inhibition at 10 uM after 48 hrs by SRB assay relative to control
Assay type: functional
Conditions: TK-10, 48 h, read-out: GI

Going from COc1ccc(CN2c3ccccc3CCc3ccccc32)cc1F to COc1ccc(CN2c3ccccc3Sc3ccccc32)c(F)c1, the inhibition of growth at 10 µM rises from 37% to 49%.

Test: Cytotoxicity against human SF295 cells assessed as growth inhibition at 10 uM after 48 hrs by SRB assay relative to control
Assay type: functional
Conditions: SF-295, 48 h, read-out: GI

Going from COc1ccc(CN2c3ccccc3CCc3ccccc32)cc1F to COc1ccc(CN2c3ccccc3Sc3ccccc32)c(F)c1, the inhibition of growth at 10 µM rises from 88% to 92%.

Test: Cytotoxicity against human BT549 cells assessed as growth inhibition after 48 hrs by SRB assay
Assay type: functional
Conditions: BT-549, 48 h

With COc1ccc(CN2c3ccccc3CCc3ccccc32)cc1F the GI50 was 746 nM.

Test: Cytotoxicity against human NCI-H226 cells assessed as growth inhibition at 10 uM after 48 hrs by SRB assay relative to control
Assay type: functional
Conditions: NCI-H226, 48 h, read-out: GI

Going from COc1ccc(CN2c3ccccc3CCc3ccccc32)cc1F to COc1ccc(CN2c3ccccc3Sc3ccccc32)c(F)c1, the inhibition of growth at 10 µM falls from 47% to 44%.

Test: Cytotoxicity against human Caki1 cells assessed as growth inhibition after 48 hrs by SRB assay
Assay type: functional
Conditions: CAKI-1, 48 h

With COc1ccc(CN2c3ccccc3CCc3ccccc32)cc1F the GI50 was 549 nM.

Test: Cytotoxicity against human OVCAR5 cells assessed as growth inhibition after 48 hrs by SRB assay
Assay type: functional
Conditions: OVCAR-5, 48 h

Compared with COc1ccc(CN2c3ccccc3CCc3ccccc32)cc1F, COc1ccc(CN2c3ccccc3Sc3ccccc32)c(F)c1 is 2.3-fold higher in GI50: 1900 nM for the first, 4390 nM for the second.

Test: Cytotoxicity against human SNB75 cells assessed as growth inhibition at 10 uM after 48 hrs by SRB assay relative to control
Assay type: functional
Conditions: SNB-75, 48 h, read-out: GI

Compared with COc1ccc(CN2c3ccccc3CCc3ccccc32)cc1F, COc1ccc(CN2c3ccccc3Sc3ccccc32)c(F)c1 is higher in inhibition of growth at 10 µM: 77% for the first, 100% for the second.
